Tests used:
Experiment in all cases: Histone peptide microarray
Type in all cases: binding, human
[1] = system: KDM4C (TTP); settings: GST-tagged KDM4C (TTP = Tandem Tudor domain + PHD); histone peptide array; arrays performed twice, n of 4
Method in brief: (§1)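 Histone peptide library (293 synthetic peptides, single/combinatorial PTMs) arrayed and probed with 0.5 μM purified GST-PHD domain; optimized protocol; quadruplicate mean and SD reported.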

[2] = system: TAF3; settings: GST-tagged TAF3; histone peptide array; arrays performed twice, n of 4
Method in brief: as §1

[3] = system: CHD5 (PCC); settings: GST-tagged CHD5 (PCC = PHD + Dual Chromodomain); histone peptide array; arrays performed twice, n of 4
Method in brief: as §1

[4] = system: BPTF (PB); settings: GST-tagged BPTF (PB = PHD + Bromodomain); histone peptide array; arrays performed twice, n of 4
Method in brief: as §1

[5] = system: PHF23; settings: GST-tagged PHF23; histone peptide array; arrays performed twice, n of 4
Method in brief: as §1

[6] = system: ING3; settings: GST-tagged ING3; histone peptide array; arrays performed twice, n of 4
Method in brief: as §1

[7] = system: PHF13; settings: GST-tagged PHF13; histone peptide array; arrays performed twice, n of 4
Method in brief: as §1

[8] = system: ING2; settings: GST-tagged ING2; histone peptide array; arrays performed twice, n of 4
Method in brief: as §1

[9] = system: RAG2; settings: GST-tagged RAG2; histone peptide array; arrays performed twice, n of 4
Method in brief: as §1

[10] = system: BAZ2B; settings: GST-tagged BAZ2B; histone peptide array; arrays performed twice, n of 4
Method in brief: as §1

[11] = system: KDM5B (1); settings: GST-tagged KDM5B (1); histone peptide array; arrays performed twice, n of 4
Method in brief: as §1

[12] = system: ING1; settings: GST-tagged ING1; histone peptide array; arrays performed twice, n of 4
Method in brief: as §1

[13] = system: CHD4 (PPCC); settings: GST-tagged CHD4 (PPCC = Dual PHD + Dual Chromodomain); histone peptide array; arrays performed twice, n of 4
Method in brief: as §1

[14] = system: PHRF1 (RP); settings: GST-tagged PHRF1 (RP); histone peptide array; arrays performed twice, n of 4
Method in brief: as §1

[15] = system: DIDO1; settings: GST-tagged DIDO1; histone peptide array; arrays performed twice, n of 4
Method in brief: as §1

[16] = system: SP140L; settings: GST-tagged SP140L; histone peptide array; arrays performed twice, n of 4
Method in brief: as §1

[17] = system: CHD5 (PPCC); settings: GST-tagged CHD5 (PPCC = Dual PHD + Dual Chromodomain); histone peptide array; arrays performed twice, n of 4
Method in brief: as §1

[18] = system: KDM5A (3); settings: GST-tagged KDM5A (3); histone peptide array; arrays performed twice, n of 4
Method in brief: as §1

[19] = system: KDM5A (1); settings: GST-tagged KDM5A (1); histone peptide array; arrays performed twice, n of 4
Method in brief: as §1

[20] = system: ING5; settings: GST-tagged ING5; histone peptide array; arrays performed twice, n of 4
Method in brief: as §1

[21] = system: KDM7A; settings: GST-tagged KDM7A; histone peptide array; arrays performed twice, n of 4
Method in brief: as §1

[22] = system: TRIM66 (PB); settings: GST-tagged TRIM66 (PB = PHD + Bromodomain); histone peptide array; arrays performed twice, n of 4
Method in brief: as §1

[23] = system: MORC3 (CW); settings: GST-tagged MORC3 (CW = CW-type Zn-finger); histone peptide array; arrays performed twice, n of 4
Method in brief: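 Purified PHD finger domains fused to GST are screened against 293 synthetic histone peptides bearing one or several post-translational modifications. The protein is used at 0.5 μM, and the signal from four replicate arrays is averaged, with standard deviation given.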

[24] = system: PHF2; settings: GST-tagged PHF2; histone peptide array; arrays performed twice, n of 4
Method in brief: as §1

[25] = system: MLL5; settings: GST-tagged MLL5; histone peptide array; arrays performed twice, n of 4
Method in brief: as §1

[26] = system: KDM5B (3); settings: GST-tagged KDM5B (3); histone peptide array; arrays performed twice, n of 4
Method in brief: as §1

[27] = system: ING4; settings: GST-tagged ING4; histone peptide array; arrays performed twice, n of 4
Method in brief: as §1

[28] = system: AIRE (PP); settings: GST-tagged AIRE (PP); histone peptide array; arrays performed twice, n of 4
Method in brief: as §1

[29] = system: PHF21A; settings: GST-tagged PHF21A; histone peptide array; arrays performed twice, n of 4
Method in brief: as §1

[30] = system: DPF2 (PPC2W2); settings: GST-tagged DPF2 (PPC2W2 = Dual PHD + C2W2-type Zn-finger); histone peptide array; arrays performed twice, n of 4
Method in brief: as §1

[31] = system: PHF8; settings: GST-tagged PHF8; histone peptide array; arrays performed twice, n of 4
Method in brief: as §1

| Substance | Array Heatmap signal, KDM4C (TTP) [1] | Array Heatmap signal, TAF3 [2] | Array Heatmap signal, CHD5 (PCC) [3] | Array Heatmap signal, BPTF (PB) [4] | Array Heatmap signal, PHF23 [5] | Array Heatmap signal, ING3 [6] | Array Heatmap signal, PHF13 [7] | Array Heatmap signal, ING2 [8] | Array Heatmap signal, RAG2 [9] | Array Heatmap signal, BAZ2B [10] | Array Heatmap signal, KDM5B (1) [11] | Array Heatmap signal, ING1 [12] | Array Heatmap signal, CHD4 (PPCC) [13] | Array Heatmap signal, PHRF1 (RP) [14] | Array Heatmap signal, DIDO1 [15] | Array Heatmap signal, SP140L [16] | Array Heatmap signal, CHD5 (PPCC) [17] | Array Heatmap signal, KDM5A (3) [18] | Array Heatmap signal, KDM5A (1) [19] | Array Heatmap signal, ING5 [20] | also measured |
| --- | --- | --- | --- | --- | --- | --- | --- | --- | --- | --- | --- | --- | --- | --- | --- | --- | --- | --- | --- | --- | --- |
| H3Cit2 + K4ac + K9ac + K14ac + K18ac: H3 1-20 | 0.4985 | 0.2461 | 0.8259 | 0.3441 | 0.5298 | 0.4982 | 0.6115 | 0.5962 | 0.246 | 0.5241 | 0.646 | 0.5011 | 0.5849 | 0.4027 | 0.6333 | 0.3325 | 0.5544 | 0.3736 | 0.4761 | 0.342 | Array Heatmap signal, KDM7A [21]: 0.3757; Array Heatmap signal, TRIM66 (PB) [22]: 0.5899; Array Heatmap signal, MORC3 (CW) [23]: 0.3458; Array Heatmap signal, PHF2 [24]: 0.465; Array Heatmap signal, MLL5 [25]: 0.5262; Array Heatmap signal, KDM5B (3) [26]: 0.5221; Array Heatmap signal, ING4 [27]: 0.466; Array Heatmap signal, AIRE (PP) [28]: 0.5046; Array Heatmap signal, PHF21A [29]: 0.4553; Array Heatmap signal, DPF2 (PPC2W2) [30]: 0.6168; Array Heatmap signal, PHF8 [31]: 0.3508 |
| H3Cit2 + K4me2: H3 1-20 | 0.4533 | 0.4779 | 0.7759 | 0.3387 | 0.5864 | 0.4571 | 0.6272 | 0.6329 | 0.6011 | 0.45 | 0.6545 | 0.5902 | 0.5675 | 0.4884 | 0.7273 | 0.366 | 0.5328 | 0.6902 | 0.4439 | 0.3412 | Array Heatmap signal, KDM7A [21]: 0.3325; Array Heatmap signal, TRIM66 (PB) [22]: 0.6817; Array Heatmap signal, MORC3 (CW) [23]: 0.7482; Array Heatmap signal, PHF2 [24]: 0.7165; Array Heatmap signal, MLL5 [25]: 0.5743; Array Heatmap signal, KDM5B (3) [26]: 0.6867; Array Heatmap signal, ING4 [27]: 0.4531; Array Heatmap signal, AIRE (PP) [28]: 0.3883; Array Heatmap signal, PHF21A [29]: 0.4507; Array Heatmap signal, DPF2 (PPC2W2) [30]: 0.6839; Array Heatmap signal, PHF8 [31]: 0.4758 |
| H3Cit2 + K4me3 + K9ac + K14ac + K18ac: H3 1-20 | 0.4327 | 0.287 | 0.7154 | 0.3451 | 0.5313 | 0.4771 | 0.5903 | 0.6235 | 0.3489 | 0.483 | 0.5319 | 0.5664 | 0.6008 | 0.4303 | 0.8494 | 0.3551 | 0.5144 | 0.5236 | 0.4209 | 0.327 | Array Heatmap signal, KDM7A [21]: 0.3427; Array Heatmap signal, TRIM66 (PB) [22]: 0.557; Array Heatmap signal, MORC3 (CW) [23]: 0.4875; Array Heatmap signal, PHF2 [24]: 0.7451; Array Heatmap signal, MLL5 [25]: 0.6331; Array Heatmap signal, KDM5B (3) [26]: 0.4827; Array Heatmap signal, ING4 [27]: 0.4376; Array Heatmap signal, AIRE (PP) [28]: 0.3964; Array Heatmap signal, PHF21A [29]: 0.4881; Array Heatmap signal, DPF2 (PPC2W2) [30]: 0.6832; Array Heatmap signal, PHF8 [31]: 0.4072 |

Reference: publication PMC6979384, “Characterization of the plant homeodomain (PHD) reader family for their histone tail interactions” (Epigenetics & Chromatin, 2020)
